For one data set, the system named is Wistar rats. Kind of data set: Enhancement of morphine analgesia, tail-flick latency (Test 2). In kind it is in vivo, rat. The protocol: To Wistar rats (10 week aged, male, body weight 250-300 g) was given intraperitoneally morphine at a dose of 0.5 mg/kg, and these rats receiving the morphine were classified into the group of morphine analgesia-effective rats and the group of morphine analgesia-non-effectiverats according to the classification method described in the "Showa Igakukai Zasshi" Vol. 39, No. 5, pages 537-542 (1979). […] The effect of analgesia was evaluated according to the method of tail-flick latency of rats described in the "Showa Igakukai Zasshi" Vol. 39, No. 5, pages 537-542 (1979). The evaluation of pain threshold of rats according to the tail-flick latency method was made as follows: Radiant heat stimulus was applied to the region of the rat tail which positioned 1 cm away from the tail tip and which had been colored black with a black-dye, and the time of latency involved in the tail flick, namely the period of time lapsing between the time of application of the heat stimulus and the time of the reflective flick response of the tail was measured. The quantity of the heat applied was so controlled that the average time of latency of the tail-flick response appearing in the control group of rats (receiving not the test compound but the morphine) was about 2.0 seconds. The tests were accomplished as long as the maximum value for the tail-flick latency was 7.0 seconds or less, as otherwise the skin of the rat tail could be damaged by the application of heat. In other words, if the time for the tail-flick latency was longer than 7.0 seconds, the tests were stopped to prevent the damage of the rat tail. The radiant heat stimulus was repeated 5 times for each test rat at an interval of 15 minutes and the times of latency in the flick response of the tail measured in each test were averaged. In each test, 5 rats were used.
The difference in the time of the tail-flick latency between the test rats (receiving 250 mg/kg of the test compound plus 0.5 mg/kg of morphine) and the control rats (receiving 0.5 mg/kg of morphine alone) was calculated, and the effect for enhancement of morphine analgesia was estimated in term of the value of percentages which were calculated by the following equation: [formula]

The next data set deals with T1, enkephalinase (Rattus norvegicus, UniProt P07861).
T1 construct: homogenizing corpus striatum of rat brain and by partial purification of the brain homogenate; from tissue; host or cells: corpus striatum of rat brain
T1 sequence (P07861 2-750 limits assumed): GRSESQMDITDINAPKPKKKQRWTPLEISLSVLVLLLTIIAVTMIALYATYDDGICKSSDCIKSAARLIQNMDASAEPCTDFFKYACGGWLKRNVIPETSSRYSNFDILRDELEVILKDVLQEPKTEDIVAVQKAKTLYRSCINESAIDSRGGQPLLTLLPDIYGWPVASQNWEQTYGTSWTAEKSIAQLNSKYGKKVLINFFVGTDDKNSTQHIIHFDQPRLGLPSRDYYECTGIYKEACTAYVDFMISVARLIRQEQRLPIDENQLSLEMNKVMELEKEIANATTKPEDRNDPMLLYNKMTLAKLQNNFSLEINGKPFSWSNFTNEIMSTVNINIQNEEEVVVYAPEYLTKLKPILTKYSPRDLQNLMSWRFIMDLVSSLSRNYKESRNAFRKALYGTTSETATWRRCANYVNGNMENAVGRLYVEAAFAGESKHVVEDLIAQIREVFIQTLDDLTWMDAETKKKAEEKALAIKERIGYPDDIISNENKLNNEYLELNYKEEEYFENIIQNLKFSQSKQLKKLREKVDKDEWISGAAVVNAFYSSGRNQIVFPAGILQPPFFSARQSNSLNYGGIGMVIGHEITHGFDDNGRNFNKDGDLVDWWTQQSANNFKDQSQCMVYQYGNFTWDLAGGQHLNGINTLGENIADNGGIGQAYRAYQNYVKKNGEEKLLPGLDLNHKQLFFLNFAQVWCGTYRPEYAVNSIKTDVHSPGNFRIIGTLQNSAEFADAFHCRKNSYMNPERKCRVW
Kind of data set: Inhibitory activity against enkephalinase (Test 1). In kind it is biochemical. Particulars: for Inhibitory activity to enkephalinase ID50: partially purified enkephalinase from rat brain corpus striatum, substrate methionine-enkephaline, 37° C., 1 hour, HPLC of Tyr-Gly-Gly.

The test system of a further data set is ICR-strain mice. To be noted: 2 g/kg intraperitoneally, 6 mice per group.
The next data set concerns rats. Briefly: Analgesic activity of test compound administered alone intracisternally, tail-flick latency (Test 3). In kind it is in vivo, rat. Particulars: for Analgesic activity (%) (increase in tail-flick latency): no morphine. The protocol: Analgesic activity was evaluated in term of the value of percentages of increase in the tail-flick latency of the test rats receiving the test compound, as compared to the control rats receiving no test compound.
The test as above was repeated with 2 mcg/kg of naloxone (a specific antogonizer to morphine) being intraperitoneally given into the test rats simultaneously to the intracisternal administration of the bestatin-related compound under test.
In general terms: Hot-plate and tail-flick tests time the reaction to a heat stimulus.

Setting [1] is: 250 mg/kg test compound i.p. + 0.5 mg/kg morphine i.p., morphine analgesia-non-effective rats, versus 0.5 mg/kg morphine alone.

Method for enkephalinase: To the solution of the test compound so prepared was added the enkephalinase, followed by incubation for five minutes at ambient temperature and further by addition of methionine-enkephaline as the substrate. The admixture so obtained was incubated at 37° C. for 1 hour and then subjected to a high-performance liquid chromatography in such a manner that the Tyr-Gly-GLy (a fragment of the methionine-enkephaline) formed by the enzymatic degradation of methionine-enkephaline was isolated in some fractions of the eluate and the quantity of Tyr-Gly-GLy was determined by an electro-chemically analysing detector.

In the case of `CC(C)C[C@H](NC(=O)[C@@H](O)[C@H](N)Cc1ccccc1)C(=O)O` [Compound 1, (2S,3R)-3-amino-2-hydroxy-4-phenylbutanoyl-(S)-leucine], the “Analgesia enhancement (%)” value in the data set with Wistar rats (setting [1]) stood at 19.5%. Besides, the “Inhibitory activity to enkephalinase ID50” value (“Inhibitory activity” for short) at enkephalinase came to 0.62 milimol.
As to `CC(C)C[C@H](NC(=O)[C@H](O)[C@H](N)Cc1ccccc1)C(=O)O` [Compound 2, (2S,3R)-3-amino-2-hydroxy-4-phenylbutanoyl-(R)-leucine], in the data set on Wistar rats (setting [1]), the “Analgesia enhancement (%)” value is 24.9%. In addition, on enkephalinase, the “Inhibitory activity” value turned out to be 2.40 milimol.
Turning to `N[C@H](Cc1ccccc1)[C@H](O)C(=O)N[C@H](CCC(=O)O)C(=O)O` [Compound 3, (2S,3R)-3-amino-2-hydroxy-4-phenylbutanoyl-(R)-glutamic], at enkephalinase, the “Inhibitory activity” value turned out to be 30.86 milimol.
As to `C[C@H](NC(=O)[C@H](O)[C@H](N)Cc1ccccc1)C(=O)O` [Compound 4, (2S,3R)-3-amino-2-hydroxy-4-phenylbutanoyl-(R)-alanine], in the data set on ICR-strain mice, the “Acute toxicity (survival)” value is “all the mice receiving 2 g/kg of AHPA-D-Ala survived”. Also, the “Inhibitory activity” value on enkephalinase is 5.98 milimol.
With `N=C(N)NCCC[C@H](NC(=O)[C@H](O)[C@H](N)Cc1ccccc1)C(=O)O` [Compound 5, (2S,3R)-3-amino-2-hydroxy-4-phenylbutanoyl-(R)-arginine], the “Analgesic activity (%) (increase in tail-flick latency)” value in the data set on rats (dose 60 mcg intracisternally) is given as 134.0%. Moreover, the “Analgesic activity when administered intracisternally in the brain (in words)” value in the data set on rats (summary statement) is “high analgesic activity”. Further, the “Analgesia enhancement (%)” value with Wistar rats (setting [1]) worked out at 13.6%. For the same molecule, the “Enhancement of the analgesic activity of morphine (in words)” value in the data set with Wistar rats (summary statement) was “not significantly effective”. The “Inhibitory activity” value at enkephalinase turned out to be 0.063 milimol. The “Activity to inhibit enkephalinase in vitro (in words)” value at enkephalinase (summary statement) is “high activity to inhibit enkephalinase”.
For `CSCC[C@H](NC(=O)[C@H](O)[C@H](N)Cc1ccccc1)C(=O)O` [Compound 6, (2S,3R)-3-amino-2-hydroxy-4-phenylbutanoyl-(R)-methionine], the “Analgesia enhancement (%)” value in the data set with Wistar rats (setting [1]) was determined as 14.7%. For the same molecule, at enkephalinase, the “Inhibitory activity” value amounted to 2.54 milimol.
Consider `CSCC[C@H](NC(=O)[C@@H](O)[C@H](N)Cc1ccccc1)C(=O)O` [Compound 7, (2S,3R)-3-amino-2-hydroxy-4-phenylbutanoyl-(S)-methionine], for which the “Analgesia enhancement (%)” value in the data set on Wistar rats (setting [1]) is recorded as 10.5%. The “Inhibitory activity” value at enkephalinase was 2.78 milimol.
For the molecule `CC(C)C[C@H](NC(=O)[C@@H](O)[C@H](N)Cc1ccc(O)cc1)C(=O)O` [Compound 8, (2S,3R)-3-amino-2-hydroxy-4-p-hydroxyphenylbutanoyl-(S)-leucine], the “Analgesic activity (%) (increase in tail-flick latency)” value in the data set with rats (dose 500 mcg intracisternally) is 47.0%. In addition, in the data set with Wistar rats (setting [1]), the “Analgesia enhancement (%)” value is listed as 34.5%. Also, the “Inhibitory activity” value at enkephalinase came out at 0.37 milimol.
Regarding `CC(C)C[C@H](NC(=O)[C@H](O)[C@H](N)Cc1ccc(O)cc1)C(=O)O` [Compound 9, (2S,3R)-3-amino-2-hydroxy-4-p-hydroxyphenylbutanoyl-(R)-leucine], the “Analgesia enhancement (%)” value in the data set with Wistar rats (setting [1]) stood at 23.1%. In addition, at enkephalinase, the “Inhibitory activity” value is 20.68 milimol.
With `N[C@H](Cc1ccc(O)cc1)[C@H](O)C(=O)N[C@H](Cc1ccccc1)C(=O)O` [Compound 10, (2S,3R)-3-amino-2-hydroxy-4-p-hydroxyphenylbutanoyl-(R)-phenylalanine], the “Analgesia enhancement (%)” value in the data set on Wistar rats (setting [1]) came to 27.0%.
Turning to `CC(C)C[C@H](NC(=O)[C@@H](O)[C@H](N)Cc1ccccc1)C(=O)N[C@H](CC(C)C)C(=O)O` [Compound 11, (2S,3R)-3-amino-2-hydroxy-4-phenylbutanoyl-(S)-leucyl-(R)-leucine], the “Analgesia enhancement (%)” value with Wistar rats (setting [1]) came to 5.2%. The “Inhibitory activity” value on enkephalinase was 0.95 milimol.
Regarding `N[C@H](Cc1ccccc1)[C@H](O)C(=O)NCCC(=O)O` [Compound 12, (2S,3R)-3-amino-2-hydroxy-4-phenylbutanoyl-β-alanine], the “Analgesia enhancement (%)” value in the data set with Wistar rats (setting [1]) is recorded as 12.0%.
As for `NC(=O)C[C@H](NC(=O)[C@H](O)[C@H](N)Cc1ccccc1)C(=O)O` [Compound 13, (2S,3R)-3-amino-2-hydroxy-4-phenylbutanoyl-(R)-asparagine], the “Inhibitory activity” value at enkephalinase is listed as 3.12 milimol.
In the case of `N[C@H](Cc1ccccc1)[C@H](O)C(=O)NCC(=O)O` [Compound 14, (2S,3R)-3-amino-2-hydroxy-4-phenylbutanoyl-glycine], the “Analgesia enhancement (%)” value in the data set on Wistar rats (setting [1]) stood at 19.1%.
Take `N[C@H](Cc1ccccc1)[C@H](O)C(=O)O` [Compound 15, (2S,3R)-3-amino-2-hydroxy-4-phenylbutanoic acid]: in the data set on Wistar rats (setting [1]), the “Analgesia enhancement (%)” value stood at 14.1%.
For `CN1CC[C@]23c4c5ccc(O)c4O[C@H]2[C@@H](O)C=C[C@H]3[C@H]1C5` [Morphine, reference compound], the figures for the “Analgesia enhancement (%)” value in the data set with Wistar rats (comparative: morphine 0.5 mg/kg alone (control reference)), in the data set on Wistar rats (comparative: morphine 2 mg/kg alone) and with Wistar rats (comparative: morphine 3 mg/kg alone) were 0%, 28.4% and 35.1%, respectively.

The values above are taken from patent US4395402A, “Analgesic agent” (Zaidan Hojin Biseibutsu Kagaku Kankyu Kai, priority 1980, dated 1983).
